Assay results published in PubChem BioAssay (NCI).
“And” between values parts separate entries of the source, which are not always exact repeats. Equal entries are not always repeated.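 The compound was tested at five concentrations on cells cultured in 96-well plates, with a 48-hour exposure period. GI50 marks 50% less growth. TGI denotes the concentration required for complete inhibition of growth.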

Columns and labels:
Assay in all cases: DTP human tumour cell line panel, 48 h
SF-268 CNS = test system: SF-268 CNS
SF-295 CNS = test system: SF-295 CNS
HOP-62 NSCLC = test system: HOP-62 NSCLC
SNB-75 CNS = test system: SNB-75 CNS
NCI-H522 lung = test system: NCI-H522 lung
NCI-H226 lung = test system: NCI-H226 lung
SNB-19 CNS = test system: SNB-19 CNS
M14 melanoma = test system: M14 melanoma
HOP-92 NSCLC = test system: HOP-92 NSCLC
EKVX NSCLC = test system: EKVX NSCLC

Compound	GI50 (SF-268 CNS)	TGI (SF-268 CNS)	GI50 (SF-295 CNS)	TGI (SF-295 CNS)	GI50 (HOP-62 NSCLC)	TGI (HOP-62 NSCLC)	GI50 (SNB-75 CNS)	TGI (SNB-75 CNS)	GI50 (NCI-H522 lung)	TGI (NCI-H522 lung)	GI50 (NCI-H226 lung)	TGI (NCI-H226 lung)	GI50 (SNB-19 CNS)	TGI (SNB-19 CNS)	GI50 (M14 melanoma)	TGI (M14 melanoma)	GI50 (HOP-92 NSCLC)	TGI (HOP-92 NSCLC)	GI50 (EKVX NSCLC)	TGI (EKVX NSCLC)
COc1ccc(-c2nc(N3CCN(C(=O)C4CCCCC4)CC3)c3c4c(sc3n2)CCCC4)cc1	89 µM	> 100 µM	26.2 µM	85.1 µM	27.5 µM	86 µM	14.1 µM	33.9 µM	27.9 µM	96.9 µM	41 µM	> 100 µM	25.7 µM	> 100 µM	> 100 µM	> 100 µM				
Nc1c(C(=O)c2ccc(CCCN3CCOCC3)cc2)cnn1-c1ccc(F)cc1	> 25 µM	> 25 µM	> 25 µM	> 25 µM	> 25 µM	> 25 µM	> 25 µM	> 25 µM	> 25 µM	> 25 µM	> 15.2 µM	> 25 µM	> 25 µM	> 25 µM	> 25 µM	> 25 µM	3.22 µM	> 25 µM		
OCC1OC(n2cnc3c(Cl)nc(Cl)cc32)C(O)C1O (stereo unspecified)	> 100 µM	> 100 µM	> 100 µM	> 100 µM	> 100 µM	> 100 µM			> 100 µM	> 100 µM			> 100 µM	> 100 µM	> 100 µM	> 100 µM	37.4 µM	> 100 µM	> 100 µM	> 100 µM
Cc1nn(-c2nc3ccccc3s2)c2c1C(=O)c1ccccc1-2		> 100 µM		> 100 µM		> 100 µM		> 100 µM		> 100 µM				> 100 µM		> 100 µM		> 100 µM		> 100 µM
CCS(=O)(=O)Nc1cccc(Nc2c3cccc(C)c3nc3c(C)cccc23)c1OC	0.98 µM	> 56 µM	0.381 µM	22.1 µM	0.555 µM	> 29.3 µM	1 µM	22 µM	2.58 µM	19.5 µM	0.627 µM	4.76 µM	0.572 µM	> 88.3 µM	0.435 µM	> 100 µM	0.399 µM	7.4 µM		
CCCCN(CCCC)CCCn1c(=O)c2c3ccccc3n(C)c2n2nnc(-c3ccccc3)c12	> 100 µM	> 100 µM	31.9 µM	> 100 µM	30.6 µM	> 100 µM	15.1 µM	56.2 µM			57 µM	> 100 µM	> 100 µM	> 100 µM	21.6 µM	> 100 µM	18.5 µM	44.7 µM	56.3 µM	> 100 µM
CN(C)CCOC(c1ccccc1)c1ccccc1					36 µM	50.9 µM and > 100 µM			25.6 µM	44.3 µM and > 100 µM	39.7 µM	56.4 µM and > 100 µM			15.3 µM	23.9 µM and > 100 µM		85.7 µM		> 100 µM
CCCCCCc1nc2nc(Cl)c(Cl)nc2[nH]1	> 100 µM	> 100 µM			> 100 µM	> 100 µM			2.73 µM	26.8 µM	7.21 µM	> 100 µM	6.2 µM	> 100 µM	> 100 µM	> 100 µM	1.99 µM	7.4 µM		
NC1=NCCN1CC(=O)O	> 1000 µM	> 10000 µM		> 10000 µM	> 10000 µM	> 10000 µM				> 10000 µM	> 10000 µM	> 10000 µM	> 10000 µM	> 10000 µM	> 10000 µM	> 10000 µM	> 10000 µM	> 10000 µM		> 10000 µM
Cc1ccc(-c2nc(N3CCCNCC3)c3oc(-c4ccccc4)nc3n2)cc1	1.83 µM	3.66 µM	1.93 µM	3.43 µM	1.84 µM	3.36 µM	1.41 µM	2.73 µM	1.72 µM	3.29 µM	1.82 µM	3.97 µM	1.82 µM	3.45 µM	1.76 µM	3.29 µM			1.81 µM	3.33 µM
CCOc1ccccc1NC(=O)CCc1n[nH]c(=S)o1		> 100 µM		> 100 µM				> 100 µM		> 100 µM		> 100 µM		> 100 µM		> 100 µM		> 100 µM		> 100 µM
CCOC(=O)/C(C#N)=C1/C(O)=C(C(=O)OC)C(C(=O)OC)=C1C(=O)OC		> 100 µM		> 100 µM				> 100 µM		> 100 µM				> 100 µM		> 100 µM		> 100 µM		> 100 µM
C/C(=C(\c1ccc(OCCN2CCCCCC2)cc1)c1ccc(OC(=O)Cc2ccccc2)cc1)c1ccc(Cl)cc1	2.84 µM	6.11 µM	2.56 µM	4.97 µM	2.67 µM	5.59 µM	2.3 µM	5.33 µM	3.6 µM	6.87 µM	2.94 µM	7.32 µM	2.96 µM	6.41 µM	1.87 µM	4.15 µM			2.6 µM	7.8 µM
O=S(O)CCCSSc1ccccc1		> 100 µM		> 100 µM		> 100 µM		88.2 µM		42.4 µM				> 100 µM		> 100 µM				88.1 µM
CCN(CC)CCCC(C)N=c1cc(Nc2cc(=NC(C)CCCN(CC)CC)c3cc(OC)ccc3o2)oc2ccc(OC)cc12 (stereo unspecified)	2.15 µM	8.72 µM	1.1 µM	3.14 µM	0.734 µM	2.16 µM	0.829 µM	2.93 µM	1.04 µM	2.15 µM	0.58 µM	2.37 µM	1.99 µM	13 µM	0.967 µM	1.79 µM	0.513 µM	3.15 µM		
Cc1cn2c(/C=N/N=C(N)N)c(-c3cccnc3)nc2s1	12.9 µM	35.8 µM	11.9 µM	26.5 µM	10 µM	24 µM			12.1 µM	39.6 µM	10.1 µM	29.4 µM	12.7 µM	28.9 µM	10 µM	23.5 µM	16.8 µM	33.4 µM	16.7 µM	36.3 µM
